From patent US20080014230A1, “Cosmetic compositions combining a C-glycoside derivative and an N-acylamino amide derivative” (L'OREAL, priority 2006, published 2008) come the findings set out here.

The subject of the experiment is keratinocyte transglutamase (TGk) activity in normal human epidermal keratinocytes (NHEK) of R3KO15 type. The experiment can be described thus: keratinocyte transglutamase (TGk) activity after prolonged contact of keratinocytes with the test composition. The class given is cell-based. Particulars: for Activity/μg: TGk activity relative to the amount of proteins, calcium-free medium; for %/blank: TGk activity, % of blank (−Ca). Here is the method:
The tests performed below use normal human epidermal keratinocytes (NHEK) of R3KO15 type obtained from breast surgery.
The activity of a composition in accordance with the invention is tested with regard to these keratinocytes by assaying the keratinocyte transglutamase (TGk) activity after prolonged contact of the keratinocytes with the test composition, the increase in TGk activity sanctioning a stimulation of keratinocyte differentiation.
The activity is tested in an SFM medium available from Invitrogen under the reference 17005034.
Its composition is as follows: • EGF 0.25 ng/ml, • pituitary extract (PE) 25 μg/ml (Invitrogen 3700015), • gentamycin 25 μg/ml (Sigma G1397) • optionally supplemented with 1.5 mM final calcium chloride (Prolabo 22317297).
Keratinocytes (R3KO15) are precultured in SFM1x medium in 96-well plates (one plate for the test, one for the protein assay and one for the MTT). After incubation for 24 hours at 37° C., the culture medium is removed and replaced with SFM medium, which is not supplemented (calcium-free blank) or supplemented with 1.5 mM final of calcium chloride and not containing (blank) or containing the products, mixed with the test or the references.
After incubation for 48 hours at 37° C. and 5% CO2, the culture medium is removed and the cells are again treated and then incubated for 48 hours at 37° C.
All the experimental conditions are performed in hexaplicate.
The cell lawns are washed and then sonicated, on ice, in Tris/EDTA pH 8.0 buffer.
The membrane TGk enzyme is extracted in the presence of Triton X-100 (incubation with stirring at 4° C.) and the TGk activity is then determined by measuring the covalent addition of tritiated putrescine at 2 μCi/ml final (Amersham TRK 414; 1.04 TBq/mmol, 28 Ci/mmol) to casein (acceptor protein, 2 mg/ml final), in a Tris 0.1 M, CaCl2 4 mM, EDTA 0.4 mM, DTT 5 mM, pH 8.3 buffer, for 2 hours at 37° C.
The casein is precipitated by addition of 20% trichloroacetic acid (TCA) containing 1 mM putrescine and the precipitates are recovered on a Skatron filter and collector (extensive washing with 5% TCA, 0.1 mM putrescine and ethanol) and the dry filters are then counted by liquid scintillation.
The proteins of each sample are assayed using the Dc Protein Assay kit (BioRad 500-0116) and according to the protocol recommended by the manufacturer.
The results obtained are given in Table 1 below, the TGk activity being relative to the amount of proteins—calcium-free medium.

As for `CC(O)C[C@@H]1OC[C@@H](O)[C@H](O)[C@H]1O` (stereo partly drawn) [C-glycoside, C-β-D-xylopyranoside-2-hydroxypropane], for the setting “1 mM”, the Activity/μg was 171 and the “%/blank” value turned out to be 136%. Moreover, where the note is “3 mM”, the Activity/μg was found to be 210 and the “%/blank” value was 167%.

Consider `CC(=O)N(c1cccc(C(F)(F)F)c1)C(C(=O)NCC(=O)O)C(C)C` (centres unmarked) [N-acylamino amide, {2-[acetyl(3-trifluoromethyl-phenyl)amino]-3-methylbutyrylamino}acetic acid], for which, for the setting “0.04 mg/ml”, the Activity/μg is given as 114 and the “%/blank” value was 91%. Further, for the setting “0.2 mg/ml”, the Activity/μg came out at 104 and the “%/blank” value was 82%. Moreover, the “effect on the TGk activity (in words)” value (tested at 0.2 mg/ml and 0.04 mg/ml) was “no significant effect”.

For `CC1=C(/C=C/C(C)=C/C=C/C(C)=C/C(=O)O)C(C)(C)CCC1` [Retinoic acid, retinoic acid, reference compound], under “10^−7 M”, the Activity/μg is recorded as 111 and the “%/blank” value was determined as 88%.
